Reference: patent US4808596A, “Imidazo[4,5-b]pyridine compounds and pharmaceutical compositions containing same” (Tokyo Tanabe Company, Ltd., priority 1986, dated 1989)
Read-outs that look alike come from different tables or passages of the source.

How the values were obtained:
[1] = tested on: Water-immersion stress ulcer; assay: Inhibitory effect on water-immersion stress ulcer; assay type: in vivo, male Wistar rats; conditions: Rattus norvegicus; oral, rats; 10 minutes before exposure to the stress; 10 hours; read-out: Inhibitory effect on Water-immersion stress ulcer, ID50
Protocol: (§1) The inhibitory effects of the present compounds [I] on various experimental ulcers were tested by using male Wistar rats, weighing about 200 g, in groups of six and determining the respective ulceration indexes for 5 types of experimental ulcers. In each test, the test compounds were suspended in a 0.5% aqueous solution of carboxymethyl cellulose and administered orally in a series of appropriately selected doses ranging from 1 to 100 mg/kg. The test procedures for 5 types of experimental ulcers were as follows:
Rats which had been fasted for 15 hours were immobilized in stress cages and immersed chest-deep in a water bath at 21° C. After 10 hours, each rat was sacrificed and the length of the ulcer(s) formed in the glandular stomach part was measured. The ulceration index was calculated on the basis of the data thus obtained. The test compounds were administered 10 minutes before exposure to the stress.
(§2) The pharmacological effect of the test compounds on each of the aforesaid experimental ulcers was evaluated on the basis of the dose (in mg/kg) required to inhibit the formation of ulcers by 50% (hereinafter referred to as ID50). The ID50 value of each test compound was determined by calculating the difference in ulceration index between the untreated group and each treated group, dividing the difference by the ulceration index of the untreated group to obtain the degree of inhibition, and constructing a dose-response curve on the basis of the data thus obtained. For purposes of comparison, the ID50 values of Omeprazole and Compounds α and β were determined in the same manner as described above and are also shown in Table 4.

[2] = tested on: Hydrochloric acid-ethanol ulcer; assay: Inhibitory effect on hydrochloric acid-ethanol ulcer; assay type: in vivo, male Wistar rats; conditions: Rattus norvegicus; oral, rats; 30 minutes before hydrochloric acid-ethanol; 1 hour; read-out: Inhibitory effect on Hydrochloric acid-ethanol ulcer, ID50
Protocol: as §1
To rats which had been fasted for 24 hours, a 150 mM hydrochloric acid-60% ethanol mixture was orally administered in an amount of 0.5 ml per 100 g of body weight. After an hour, each rat was sacrificed and the length of the ulcer(s) formed in the glandular stomach part was measured. The ulceration index was calculated on the basis of the data thus obtained. The test compounds were administered 30 minutes before administration of the hydrochloric acid-ethanol mixture.
as §2

physchem = assay type: physicochemical; conditions: for remaining at 192 h: solid
Protocol: The storage stability of the present compounds [I] was tested by allowing each test compound to stand under severe conditions (i.e., a temperature of 60° C. and a relative humidity of 75%) for 8 days and then determining its percentage of residue according to a thin-layer densitometric method (Bunseki Kagaku, Vol. 23, No. 9, p. 1016, 1974). More specifically, upon completion of the severe treatment, 100 μg of each test compound was applied to a thin-layer plate and this plate was developed with a chloroform-ethanol mixture (volume ratio 10:1). The thin-layer plate used for this purpose was a TLC Plate Aluminum Oxide 60F254 (manufactured by Merck Co.; 0.25 mm in thickness and 20 cm×20 cm in size), and it was developed over a distance of 15 cm. Then, using a Shimazu Two-wavelength Chromatoscanner CS-910 (manufactured by Shimazu Seisakusho), the resulting spot was analyzed at a wavelength of 300-315 nm.
For purposes of comparison, the percentages of residue of Omeprazole (at a measuring wavelength of 300 nm) and Compounds α and β (at a measuring wavelength of 310 nm) were determined in the same manner as described above and are also shown in Table 1.

(H^+ +K^+) ATPase = target: T1, (H^+ +K^+) ATPase (Sus scrofa, UniProt P19156); assay: Inhibitory effect on (H^+ +K^+) ATPase; assay type: biochemical, hog; conditions: in vitro; for inhibition at 1000 µM: at 1 × 10^-3 M, read-out: Degree of inhibition, Inhibitory effect on (H^+ + K^+) ATPase
T1 construct: prepared from fresh pieces of the fundus ventriculi of hog stomach; from tissue; host or cells: hog stomach, fundus ventriculi (fresh pieces), prepared by the method of Saccomani et al., J. Biol. Chem. 1976
Protocol: The inhibitory effect of the present compounds [I] on (H^+ +K^+) ATPase was tested by adding each test compound to a solution containing 300-500 μg, on a protein basis, of the enzyme, incubating this reaction mixture at 35°-37° C. for 5-30 minutes, and then determining the residual activity of (H^+ +K^+) ATPase present in the reaction mixture. The test compounds were dissolved in methanol or ethanol in advance and added to the reaction system in such an amount as to give a concentration of 1×10^-3 M. The (H^+ +K^+) ATPase used in this test was prepared from fresh pieces of the fundus ventriculi of hog stomach according to the method of Saccomani et al. (The Journal of Biological Chemistry, Vol. 251, No. 23, p. 7690, 1976). The residual activity of (H^+ +K^+) ATPase was determined by mixing magnesium chloride and potassium chloride with the incubated reaction mixture, adding adenosine triphosphate thereto, incubating this assay mixture 37° C. for 5-15 minutes to effect an enzymic reaction, and colorimetrically determining the liberated inorganic phosphate by use of an ammonium molybdate reagent. The initial concentrations of magnesium chloride, potassium chloride and adenosine triphosphate were adjusted to 2 mM, 20 mM and 2 mM, respectively. Colorimetric determinations were made at a wavelength of 360-400 nm. As a control experiment, the residual activity of (H^+ +K^+) ATPase was determined by repeating the above-described procedure without adding any test compound to the reaction system. In this table, the inhibitory effect is indicated by the degree of inhibition which was obtained by calculating the difference between the measured value obtained in the control experiment and the measured value resulting from the addition of each test compound and expressing this difference as a percentage of the measured value obtained in the control experiment. For purposes of comparison, the inhibitory effect of Omeprazole and Compounds α and β on (H^+ +K^+) ATPase was tested in the same manner as described above and the results thus obtained are also shown in Table 2.

Aspirin ulcer = assay: Inhibitory effect on aspirin ulcer; assay type: in vivo, male Wistar rats; conditions: Rattus norvegicus; oral, rats; 30 minutes before ligation; aspirin 150 mg/kg; 7 hours; read-out: Inhibitory effect on Aspirin ulcer, ID50
Protocol: as §1
In rats which had been fasted for 24 hours, the pyloric end of the stomach was ligated. After 5 minutes, aspirin was orally administered thereto in a dose of 150 mg/kg. Seven hours after ligation, each rat was sacrificed and the length of the ulcer(s) formed in the glandular stomach part was measured. The ulceration index was calculated on the basis of the data thus obtained. The test compounds were administered 30 minutes before ligation.
as §2

Shay's ulcer = assay: Inhibitory effect on Shay's ulcer; assay type: in vivo, male Wistar rats; conditions: Rattus norvegicus; oral, rats; 30 minutes before ligation; 14 hours; read-out: Inhibitory effect on Shay's ulcer, ID50
Protocol: as §1
In rats which had been fasted for 48 hours, the pyloric end of the stomach was ligated and they were maintained for 14 hours without giving any food or water. Then, each rat was sacrificed and the area of the ulcer(s) formed in the forestomach part was measured. The ulceration index was calculated on the basis of the data thus obtained. The test compounds were administered 30 minutes before ligation.
as §2

T1 sequence (P19156 2-1034 limits assumed): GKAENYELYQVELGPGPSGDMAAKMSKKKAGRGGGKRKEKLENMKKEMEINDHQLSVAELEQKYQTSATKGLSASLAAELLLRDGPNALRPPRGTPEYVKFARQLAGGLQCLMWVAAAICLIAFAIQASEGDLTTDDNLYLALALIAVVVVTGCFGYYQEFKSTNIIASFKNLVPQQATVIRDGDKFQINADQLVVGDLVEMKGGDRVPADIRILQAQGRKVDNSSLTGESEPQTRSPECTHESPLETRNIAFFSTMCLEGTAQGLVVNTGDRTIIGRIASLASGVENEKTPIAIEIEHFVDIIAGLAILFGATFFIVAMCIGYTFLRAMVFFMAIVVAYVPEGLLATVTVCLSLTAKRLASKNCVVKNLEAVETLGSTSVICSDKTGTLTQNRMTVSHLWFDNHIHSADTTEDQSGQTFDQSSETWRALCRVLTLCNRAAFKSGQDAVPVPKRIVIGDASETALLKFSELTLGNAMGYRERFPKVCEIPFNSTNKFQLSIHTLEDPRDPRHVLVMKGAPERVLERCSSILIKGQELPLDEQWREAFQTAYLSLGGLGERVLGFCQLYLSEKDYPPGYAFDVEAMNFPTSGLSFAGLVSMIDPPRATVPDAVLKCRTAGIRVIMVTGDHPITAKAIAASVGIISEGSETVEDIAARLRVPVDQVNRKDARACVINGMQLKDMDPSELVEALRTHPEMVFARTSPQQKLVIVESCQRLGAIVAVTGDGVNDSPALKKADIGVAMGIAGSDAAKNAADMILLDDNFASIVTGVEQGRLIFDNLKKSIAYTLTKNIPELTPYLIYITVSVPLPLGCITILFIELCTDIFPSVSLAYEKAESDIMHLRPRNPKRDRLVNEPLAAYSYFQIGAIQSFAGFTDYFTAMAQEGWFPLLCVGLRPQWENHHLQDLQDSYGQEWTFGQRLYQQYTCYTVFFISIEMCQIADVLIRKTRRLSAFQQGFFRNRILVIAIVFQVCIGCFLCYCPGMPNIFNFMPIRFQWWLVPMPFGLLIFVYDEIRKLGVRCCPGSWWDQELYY
T1 sequence (P18434 whole entry partner): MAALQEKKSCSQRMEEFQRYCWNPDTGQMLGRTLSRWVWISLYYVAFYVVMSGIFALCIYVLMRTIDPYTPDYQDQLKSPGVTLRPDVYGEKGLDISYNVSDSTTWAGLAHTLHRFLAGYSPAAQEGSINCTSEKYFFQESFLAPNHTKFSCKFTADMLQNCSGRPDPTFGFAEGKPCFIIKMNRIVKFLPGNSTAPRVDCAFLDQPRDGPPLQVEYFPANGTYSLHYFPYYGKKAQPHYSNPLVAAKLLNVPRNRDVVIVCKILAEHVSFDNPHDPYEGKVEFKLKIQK

Structure (SMILES)	ED50 [1]	ED50 [2]	storage stability (in words) (physchem)	remaining at 192 h (physchem; 75% rh)	inhibition at 1000 µM ((H^+ +K^+) ATPase)	inhibitory effect on (H^+ +K^+) ATPase (in words) ((H^+ +K^+) ATPase)	ED50 (Aspirin ulcer)	ED50 (Shay's ulcer)	remaining at 192 h (physchem; after treatment at 60° C. and 75% RH for 8 days, read-out: Storage stability, Percentage of residue)
COc1c(C)cnc(C[S+]([O-])c2nc3ncc(Br)cc3[nH]2)c1C (stereo not drawn) [Compound α, 2-[2-(3,5-dimethyl-4-methoxy)pyridylmethylsulfinyl]-6-bromoimidazo[4,5-b]pyridine, reference compound]	≥ 100 mg/kg	63.3 mg/kg	defective in storage stability	0%	100%	marked inhibitor effect	≥ 100 mg/kg	≥ 100 mg/kg	–
COc1c(C)cnc(C[S+]([O-])c2nc3ncc(C)cc3[nH]2)c1C (stereo not drawn) [Compound β, 2-[2-(3,5-dimethyl-4-methoxy)pyridylmethylsulfinyl]-6-methylimidazo[4,5-b]-pyridine, reference compound]	63.3 mg/kg	25.4 mg/kg	defective in storage stability	9%	100%	marked inhibitor effect	23.8 mg/kg	42 mg/kg	–
COc1ccc2[nH]c([S+]([O-])Cc3ncc(C)cc3C)nc2n1 (centres unmarked) [Example 1, 2-[2-(3,5-Dimethyl)pyridylmethylsulfinyl]-5-methoxyimidazo[4,5-b]pyridine]	26.4 mg/kg	5.1 mg/kg	–	98%	100%	–	6.3 mg/kg	11 mg/kg	–
CCOc1ccc2[nH]c([S+]([O-])Cc3ncc(C)c(C)c3C)nc2n1 (centres unmarked) [Example 8, 2-[2-(3,4,5-Trimethyl)pyridylmethylsulfinyl]-5-ethoxyimidazo[4,5-b]pyridine]	34.2 mg/kg	8.2 mg/kg	–	96%	100%	–	10.7 mg/kg	15.1 mg/kg	–
COc1cc(C[S+]([O-])c2nc3nc(OCC4CC4)ccc3[nH]2)ncc1C (centres unmarked) [Example 13, 2-[2-(4-Methoxy-5-methyl)pyridylmethylsulfinyl]-5-cyclopropylmethyloxyimidazo[4,5-b]pyridine]	37.3 mg/kg	9.6 mg/kg	–	88%	87.4%	–	14.5 mg/kg	17.4 mg/kg	–
COc1c(C)cnc(C[S+]([O-])c2nc3nc(OCC4CC4)ccc3[nH]2)c1C (centres unmarked) [Example 24, 2-[2-(3,5-Dimethyl-4-methoxy)pyridylmethylsulfinyl]-5-cyclopropylmethyloxyimidazo[4,5-b]pyridine]	27 mg/kg	3.5 mg/kg	–	94%	100%	–	5.4 mg/kg	10.8 mg/kg	–
COc1c(C)cnc(C[S+]([O-])c2nc3nc(OCC(F)(F)F)ccc3[nH]2)c1C (centres unmarked) [Example 26, 2-[2-(3,5-Dimethyl-4-methoxy)pyridylmethylsulfinyl]-5-(2,2,2-trifluoroethoxy)imidazo[4,5-b]pyridine]	30.5 mg/kg	7.9 mg/kg	–	92%	100%	–	9.5 mg/kg	14.7 mg/kg	–
CCCCCCCOc1ccc2[nH]c([S+]([O-])Cc3ncc(C)cc3C)nc2n1 (centres unmarked) [Example 33, 2-[2-(3,5-Dimethyl)pyridylmethylsulfinyl]-5-n-heptyloxyimidazo[4,5-b]pyridine]	35.1 mg/kg	10.3 mg/kg	–	89%	95.4%	–	12.6 mg/kg	19.2 mg/kg	–
COc1ccc2[nH]c([S+]([O-])Cc3ncc(C)c(OC)c3C)nc2c1 (centres unmarked) [Omeprazole, reference compound]	39.7 mg/kg	13.6 mg/kg	undergoes a higher degree of deterioration than might be expected	–	38.7%	–	17.2 mg/kg	30.3 mg/kg	3%
